Measurements reported in patent US8841422B2, “Human androgen receptor alternative splice variants” (University of Maryland, Baltimore, priority 2008, dated 2014).

Tests used:
80 kD ARs = assay: Western blot with anti-AR after AR shRNAs in CWR-R1 cells; format: cell-based, human; conditions: 48 hr post infection
Text: FIGS. 1A-H: Cloning of novel alternative splice AR isoforms. (A) Presence of the short forms of AR in prostate cancer cells. Total cell lysates of different prostate cancer cells were blotted with anti-AR (441) antibody (upper) and anti-Actin antibody (lower). (B) Selective knockdown of AR long/short forms by AR shRNAs. CWR-R1 cells were infected with the lentivirus encoding AR shRNAa, AR shRNAb, and AR shRNAc (shARa, shARb and shARc) targeting different exons of AR as indicated in (D). At 48 hr post infection, the total cell lysates were subjected to western blot with anti-AR antibody. The same blot was stained with Coomassie Blue to show the protein loading (right panel). (C) Presence of AR isoform transcripts in CWR-R1 cells. Total RNA was isolated from CWR-R1 cells and reverse transcribed. The primer derived from AR shRNAc sequence was used to perform a rapid amplification of cDNA 3′-end (3′-RACE) with the RACE oligo-dT primer or a control primer. (D) Schematic structure of the human AR splice variants. The hatched cassettes stand for the cryptic exons. Solid thick lines represent the transcribed sequences. (E) Expression of AR isoforms in prostate cancer cells. The relative expression levels of AR, AR3, AR4 and AR5 were quantified using real-time PCR with the isoform specific primer pair sets described in Methods (left panel). The AR level in LNCaP cells was arbitrarily set as 1. The expression levels of AR3 in LNCaP and C-8 1 cells were further plotted with a higher resolution. *p<0.05 (right panel). (F) Transcriptional activity of AR isoforms. COS-1 cells were transfected with ARR.2-luciferase reporter gene together with AR, AR3, AR4 and AR5 expression vector. At 24 hr posttransfection, the cells were lysed and the luciferase activity was measured. The data were expressed as relative promoter activity, the changes of luciferase activity relative to the untreated control (arbitrarily set as 1). (G) COS-1 cells were transfected with ARR2-Luciferase reporter along with increasing doses of AR3 or AR expressing vector. […]

AR = format: cell-based, human; conditions: LNCaP cells
Text: (H) LNCaP cells were infected with (+) or without (−) the lentivirus encoding AR shRNA (shAR) as described previously. At 6 hr postinfection, the cells were transfected with ARR2-Luciferase reporter along with AR3 or the codon-switched wild-type AR expressing vector (ARcs).
Briefly, cells grown in 24-well plates were transiently transfected with different plasmid constructs using LipofectAM1NE 2000 (Invitrogen) for LNCaP cells and FuGENE HI) (Roche) for COS-1 cells following the manufacturer's instruction. […] Dual-Luciferase assays were performed according to the protocol from the manufacturer (Promega).

22Rv1 xenograft = assay: In vivo tumor growth in xenograft model, castrated male nude mice; conditions: 22Rv1 cells infected 48 hr before s.c. injection
Experimental: (§1) FIGS. 4A-D: AR3 promotes androgen-independent growth of prostate cancer cells. LNCaP cells were infected with lentivirus encoding AR3 expression construct (AR3) or the control vector. After 2-week culture in androgen-depleted condition, the cells were visualized by Coomassie Blue staining (A). At 48 hr post infection, the cells were injected into the castrated SCID mice and the growth of the tumor cells were monitored weekly. The result represent the mean tumor volume±SE (n=5 mice/group), *p<0.05 Inset, Western blots of anti-AR3 and anti-AR of the LNCaP xenograft tumor lysates (B). CWR-R1 and 22Rv1 cells were infected with lentivirus encoding AR3 shRNA-1 (shAR3) or control shRNA (shCon). After 2 weeks culture in androgen-depleted condition, the cells were visualized by Coomassie Blue staining (C). At 48 hr postinfection, the cells were injected into the castrated male nude mice. The growth of the tumors was monitored weekly. The result represents the mean tumor volume±SE (n=5 mice/group), *p<0.05 (D). […]
(§2) In vitro cell growth assay and In vivo tumor growth in xenograft models LNCaP, CWR-R1 and 22Rv1 cells were infected with the lentiviruses bearing the shRNA sequences and the AR3 expression constructs as indicated. […] The volumes of the tumors formed on both sides were measured weekly and calculated by using the formula: 0.5236×r1^2×r2 (r1<r2). […]

CWR-R1 xenograft = assay: as above; conditions: CWR-R1 cells infected 48 hr before s.c. injection
Experimental: as §1, §2

22Rv1 cells = assay: In vitro cell growth assay in androgen-depleted condition; format: cell-based, human; conditions: 22Rv1, 2 weeks culture, Coomassie Blue staining
Experimental: as §1, §2

CWR-R1 cells = assay: as above; format: cell-based, human; conditions: CWR-R1, 2 weeks culture, Coomassie Blue staining
Experimental: as §1, §2

Molecule	knock-down of 80 kD ARs (80 kD ARs)	activity of endogenous AR or codon-switched wild-type AR (luciferase reporter) (AR)	other results
shARc: shRNA specific for human AR gene, lentiviral pLKO.1-puro vector from Sigma, targeting the 1st Exon, SEQ ID NO: 12 (CCGGCGCGACTACTACAACTTTCCACTCGAGTGGAAAGTTGTAGTAGTCGCGUTTT)	efficiently knocked down	–	–
C[C@]12CCC(=O)C[C@@H]1CC[C@@H]1[C@@H]2CC[C@]2(C)[C@@H](O)CC[C@@H]12 [DHT]	–	induced	–
CC(O)(CS(=O)(=O)c1ccc(F)cc1)C(=O)Nc1ccc(C#N)c(C(F)(F)F)c1 (stereo not drawn) [casodex]	–	blocked	–
shARa: shRNA specific for human AR gene, lentiviral pLKO.1-puro vector from Sigma, targeting Exon 8, SEQ ID NO: 10 (CCGGCCTGCTAATCAAGTCACACATCTCGAGATGTGTGACTTGATTAGCAGGTTTTT)	barely affected	–	–
shARb: shRNA specific for human AR gene, lentiviral pLKO.1-puro vector from Sigma, targeting Exon 5, SEQ ID NO: 11 (CCGGCACCAATGTCAACTCCAGGATCTCGAGATCCTGGAGTTGACATTGGTGTTTTT)	barely affected	–	–
shAR3-1: lentivirus encoded shRNA specific for AR3 isoform, made using SEQ ID NOS: 13 and 14 (nucleic acid) chain 1: TGTAATAGTGGTTACCACTCTTCAAGAGAGAGTGGTAACCACTATTACTTTTTTTTC chain 2: TCGAGAAAAAAAAGTAATAGTGGTTACCACTCTCTCTTGAAGAGTGGTAACCACTATTACA	–	–	tumor growth in castrated nude mice (22Rv1 xenograft): attenuated their growth; tumor growth in castrated nude mice (CWR-R1 xenograft): attenuated their growth; cell growth in androgen-depleted medium (22Rv1 cells): attenuated their growth; cell growth in androgen-depleted medium (CWR-R1 cells): attenuated their growth
